{"source": "patent US8785445B2", "about": "(Array BioPharma Inc., priority 2008, dated 2014)", "target": "T1, human DP2 (Homo sapiens, UniProt Q9Y5Y4)", "T1 construct": "expressed in transfected cells; membranes prepared", "T1 sequence (Q9Y5Y4 1-395)": "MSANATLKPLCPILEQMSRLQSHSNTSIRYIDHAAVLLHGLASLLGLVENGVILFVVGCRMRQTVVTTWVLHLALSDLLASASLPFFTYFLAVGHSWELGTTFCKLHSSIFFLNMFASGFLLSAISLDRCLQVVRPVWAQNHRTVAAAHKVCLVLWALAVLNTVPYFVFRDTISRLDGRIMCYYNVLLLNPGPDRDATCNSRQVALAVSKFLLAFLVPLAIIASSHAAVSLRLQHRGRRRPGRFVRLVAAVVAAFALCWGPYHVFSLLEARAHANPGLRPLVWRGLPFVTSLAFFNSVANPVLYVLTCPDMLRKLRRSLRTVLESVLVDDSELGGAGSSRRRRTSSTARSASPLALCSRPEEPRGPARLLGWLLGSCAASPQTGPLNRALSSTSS", "assay": "DP-2 binding inhibition assay (3H-PGD2, membranes of DP2-expressing K562 cells)", "experimental": "The coding sequence of human DP2 was introduced into the human Leukemic cell line K562 by electroporation and stable clones expressing DP2 were obtained by limiting dilution followed by cell surface staining with a rat monoclonal antibody specific for human DP2. Membranes were prepared from one of these DP2 expressing clones and used to determine the ability of the compounds of the present invention to inhibit binding of prostaglandin D2 (PGD2) to its receptor DP2 in the presence of one or more of the following serum protein concentrations, 0.1% BSA, 1% HSA or 4% HSA, by the following procedure. […] After incubation for 60 minutes at room temperature, the assay was transferred to a filtration plate (#MAFB; Millipore Corporation, Bedford, Mass.), and washed three times with binding buffer. Radioactivity was measured by a scintillation counter (TopCount; PerkinElmer Life Sciences, Boston, Mass.). Nonspecific binding was determined by incubations in the presence of 1 μM unlabeled PGD2 or 5 μM of a known DP2 antagonist. IC50 values for inhibition of binding were determined for each compound tested from the inflexion point of a standard 4-parameter logistical curve fitted to the values obtained.", "key": {"[1]": {"conditions": "4% HSA, read-out: EC50 (nM) 4% HSA"}, "[2]": {"conditions": "0.1% BSA, read-out: EC50 (nM) 0.1% BSA"}, "[3]": {"conditions": "1% HSA, read-out: EC50 (nM) 1% HSA"}}, "note": "Like-named read-outs stand apart in the source and are kept apart here.", "data": [{"smiles": "O=C(Nc1ccc2cc(Cl)ccc2n1)c1ccc(Oc2cc3c(cc2Cl)[C@H](C(=O)O)CCO3)cc1", "note": "(single isomer, unassigned; enantiomer 1) [Example 36, 6-Chloro-7-(4-(6-chloroquinolin-2-ylcarbamoyl)phenoxy)chroman-4-carboxylic acid, Enantiomer 1]", "values": [{"measurement": "EC50", "setting": "[1]", "result": 84, "unit": "nM"}]}, {"smiles": "O=C(Nc1cccc(-c2ccc(Cl)cc2)n1)c1ccc(Oc2cc3c(cc2Cl)[C@@H](C(=O)O)CCO3)cc1", "note": "(single isomer, unassigned; enantiomer 1) [Example 141, 6-Chloro-7-(4-(6-(4-chlorophenyl)pyridin-2-ylcarbamoyl)phenoxy)chroman-4-carboxylic acid, Enantiomer 1]", "values": [{"measurement": "EC50", "setting": "[1]", "result": 3920, "unit": "nM"}]}, {"smiles": "O=C(Nc1ccc2cc(Cl)ccc2n1)c1ccc(Oc2cc3c(cc2Cl)[C@@H](C(=O)O)CCO3)cc1", "note": "(single isomer, unassigned; enantiomer 2) [Example 37, 6-Chloro-7-(4-(6-chloroquinolin-2-ylcarbamoyl)phenoxy)chroman-4-carboxylic acid, Enantiomer 2]", "values": [{"measurement": "EC50", "setting": "[1]", "result": 4000, "unit": "nM"}]}, {"smiles": "O=C(Nc1cccc(-c2ccc(Cl)cc2)n1)c1ccc(Oc2cc3c(cc2Cl)[C@H](C(=O)O)CCO3)cc1", "note": "(single isomer, unassigned; enantiomer 2) [Example 142, 6-Chloro-7-(4-(6-(4-chlorophenyl)pyridin-2-ylcarbamoyl)phenoxy)chroman-4-carboxylic acid, Enantiomer 2]", "values": [{"measurement": "EC50", "setting": "[1]", "result": 21.7, "unit": "nM"}]}, {"smiles": "O=C(Nc1cccc(-c2ccc(Cl)cc2)n1)c1ccc(Oc2cc3c(cc2Cl)C(C(=O)O)CCO3)cc1", "note": "(single isomer, unassigned; enantiomer 2) [Example 182, Enantiomer 2 of 6-Chloro-7-(4-(6-(4-chlorophenyl)pyridin-2-ylcarbamoyl)phenoxy)chroman-4-carboxylic acid]", "values": [{"measurement": "EC50", "setting": "[1]", "result": 22, "unit": "nM"}]}, {"smiles": "O=C(Nc1ccc(-c2ccc(C(F)(F)F)cc2)nn1)c1ccc(Oc2cc3c(cc2Cl)C(C(=O)O)CCO3)cc1", "note": "(single isomer, unassigned; enantiomer 2) [Example 185, Enantiomer 2 of sodium 6-chloro-7-(4-(6-(4-(trifluoromethyl)phenyl)pyridazin-3-ylcarbamoyl)phenoxy)chroman-4-carboxylate]", "values": [{"measurement": "EC50", "setting": "[2]", "result": 1.2, "unit": "nM"}, {"measurement": "EC50", "setting": "[1]", "result": 60, "unit": "nM"}]}, {"smiles": "O=C(Nc1cccc(-c2ccc(Cl)cc2)n1)c1ccc(Oc2cc3c(cc2Cl)C(C(=O)O)CCO3)cc1", "note": "(stereo in doubt) [Example 206, (R)-6-chloro-7-(4-(6-(4-chlorophenyl)pyridin-2-ylcarbamoyl)phenoxy) chroman-4-carboxylic acid]", "values": [{"measurement": "EC50", "setting": "[1]", "result": 5000, "unit": "nM"}]}, {"smiles": "N#Cc1cc2c(cc1Oc1ccc(C(=O)Nc3ccc(C(F)(F)F)cn3)cc1)OCCC2C(=O)O", "note": "(stereo not shown) [Example 1, 7-(4-((5-(Trifluoromethyl)pyridin-2-yl)carbamoyl)phenoxy)-6-cyanochroman-4-carboxylic acid]", "values": [{"measurement": "EC50", "setting": "[2]", "result": 19.3, "unit": "nM"}]}, {"smiles": "N#Cc1cc2c(cc1Oc1ccc(C(=O)Nc3ccc(Cl)cn3)cc1)OCCC2C(=O)O", "note": "(stereo not shown) [Example 2, 7-(4-(5-Chloropyridin-2-ylcarbamoyl)phenoxy)-6-cyanochroman-4-carboxylic acid]", "values": [{"measurement": "EC50", "setting": "[2]", "result": 26.7, "unit": "nM"}]}, {"smiles": "N#Cc1cc2c(cc1Oc1ccc(C(=O)Nc3ccc4ccccc4n3)cc1)OCCC2C(=O)O", "note": "(stereo not shown) [Example 3, 6-Cyano-7-(4-(quinolin-2-ylcarbamoyl)phenoxy)chroman-4-carboxylic acid]", "values": [{"measurement": "EC50", "setting": "[2]", "result": 12.8, "unit": "nM"}, {"measurement": "EC50", "setting": "[3]", "result": 482, "unit": "nM"}]}, {"smiles": "N#Cc1cc2c(cc1Oc1ccc(C(=O)Nc3cnc4ccccc4n3)cc1)OCCC2C(=O)O", "note": "(stereo not shown) [Example 4, 6-Cyano-7-(4-(quinoxalin-2-ylcarbamoyl)phenoxy)chroman-4-carboxylic acid]", "values": [{"measurement": "EC50", "setting": "[2]", "result": 27.7, "unit": "nM"}, {"measurement": "EC50", "setting": "[3]", "result": 370, "unit": "nM"}]}, {"smiles": "N#Cc1cc2c(cc1Oc1ccc(C(=O)Nc3ccc4cc(Cl)ccc4n3)cc1)OCCC2C(=O)O", "note": "(stereo not shown) [Example 5, 7-(4-(6-Chloroquinolin-2-ylcarbamoyl)phenoxy)-6-cyanochroman-4-carboxylic acid]", "values": [{"measurement": "EC50", "setting": "[2]", "result": 5.9, "unit": "nM"}, {"measurement": "EC50", "setting": "[3]", "result": 137, "unit": "nM"}, {"measurement": "EC50", "setting": "[1]", "result": 357, "unit": "nM"}]}, {"smiles": "N#Cc1cc2c(cc1Oc1ccc(C(=O)Nc3ccc(C(F)(F)F)nc3)cc1)OCCC2C(=O)O", "note": "(stereo not shown) [Example 6, 7-(4-((6-(Trifluoromethyl)pyridin-3-yl)carbamoyl)phenoxy)-6-cyanochroman-4-carboxylic acid]", "values": [{"measurement": "EC50", "setting": "[2]", "result": 16.9, "unit": "nM"}, {"measurement": "EC50", "setting": "[3]", "result": 524, "unit": "nM"}]}, {"smiles": "COc1cccc2cc(NC(=O)c3ccc(Oc4cc5c(cc4C#N)C(C(=O)O)CCO5)cc3)cnc12", "note": "(stereo not shown) [Example 7, 6-Cyano-7-(4-(8-methoxyquinolin-3-ylcarbamoyl)phenoxy)chroman-4-carboxylic acid]", "values": [{"measurement": "EC50", "setting": "[1]", "result": 2070, "unit": "nM"}]}, {"smiles": "N#Cc1cc2c(cc1Oc1ccc(C(=O)Nc3ncc4cc(Cl)ccc4n3)cc1)OCCC2C(=O)O", "note": "(stereo not shown) [Example 8, 7-(4-(6-Chloroquinazolin-2-ylcarbamoyl)phenoxy)-6-cyanochroman-4-carboxylic acid]", "values": [{"measurement": "EC50", "setting": "[1]", "result": 695, "unit": "nM"}]}, {"smiles": "N#Cc1cc2c(cc1Oc1ccc(C(=O)Nc3cc4ccccc4cn3)cc1)OCCC2C(=O)O", "note": "(stereo not shown) [Example 9, 6-Cyano-7-(4-(isoquinolin-3-ylcarbamoyl)phenoxy)chroman-4-carboxylic acid]", "values": [{"measurement": "EC50", "setting": "[1]", "result": 774, "unit": "nM"}]}, {"smiles": "N#Cc1cc2c(cc1Oc1ccc(C(=O)Nc3cnc4ccccc4c3)cc1)OCCC2C(=O)O", "note": "(stereo not shown) [Example 10, 6-Cyano-7-(4-(quinolin-3-ylcarbamoyl)phenoxy)chroman-4-carboxylic acid]", "values": [{"measurement": "EC50", "setting": "[2]", "result": 37.8, "unit": "nM"}]}, {"smiles": "N#Cc1cc2c(cc1Oc1ccc(C(=O)NCCc3ccc(C(F)(F)F)cn3)cc1)OCCC2C(=O)O", "note": "(stereo not shown) [Example 11]", "values": [{"measurement": "EC50", "setting": "[2]", "result": 47.6, "unit": "nM"}, {"measurement": "EC50", "setting": "[3]", "result": 183, "unit": "nM"}]}, {"smiles": "N#Cc1cc2c(cc1Oc1ccc(C(=O)NCCc3ccc(C(F)(F)F)nc3)cc1)OCCC2C(=O)O", "note": "(stereo not shown) [Example 12, 6-Cyano-7-(4-(2-(6-(trifluoromethyl)pyridin-3-yl)ethylcarbamoyl)phenoxy)chroman-4-carboxylic acid]", "values": [{"measurement": "EC50", "setting": "[1]", "result": 667, "unit": "nM"}]}, {"smiles": "Cc1ccc(-c2cccc(NC(=O)c3ccc(Oc4cc5c(cc4C#N)C(C(=O)O)CCO5)cc3)n2)cc1C", "note": "(stereo not shown) [Example 13, 6-Cyano-7-(4-(6-(3,4-dimethylphenyl)pyridin-2-ylcarbamoyl)phenoxy)chroman-4-carboxylic acid]", "values": [{"measurement": "EC50", "setting": "[1]", "result": 45.1, "unit": "nM"}]}, {"smiles": "Cc1cc(C(=O)Nc2ccc(C(F)(F)F)nc2)ccc1Oc1cc2c(cc1C#N)C(C(=O)O)CCO2", "note": "(stereo not shown) [Example 14, 6-Cyano-7-(2-methyl-4-(6-(trifluoromethyl)pyridin-3-ylcarbamoyl)phenoxy)chroman-4-carboxylic acid]", "values": [{"measurement": "EC50", "setting": "[2]", "result": 55.8, "unit": "nM"}]}, {"smiles": "O=C(Nc1cnc2cc(Cl)ccc2n1)c1ccc(Oc2cc3c(cc2Cl)C(C(=O)O)CCO3)cc1", "note": "(stereo not shown) [Example 15, 6-Chloro-7-(4-(6-chloroquinoxalin-2-ylcarbamoyl)phenoxy)chroman-4-carboxylic acid]", "values": [{"measurement": "EC50", "setting": "[2]", "result": 17.9, "unit": "nM"}, {"measurement": "EC50", "setting": "[3]", "result": 207, "unit": "nM"}, {"measurement": "EC50", "setting": "[1]", "result": 409, "unit": "nM"}]}, {"smiles": "O=C(Nc1ccc2cc(C(F)(F)F)ccc2n1)c1ccc(Oc2cc3c(cc2Cl)C(C(=O)O)CCO3)cc1", "note": "(stereo not shown) [Example 16, 6-Chloro-7-(4-(6-(trifluoromethyl)quinolin-2-ylcarbamoyl)phenoxy)chroman-4-carboxylic acid]", "values": [{"measurement": "EC50", "setting": "[1]", "result": 142, "unit": "nM"}]}, {"smiles": "O=C(Nc1ccc2ccc(Cl)cc2n1)c1ccc(Oc2cc3c(cc2Cl)C(C(=O)O)CCO3)cc1", "note": "(stereo not shown) [Example 17, 6-Chloro-7-(4-(7-chloroquinolin-2-ylcarbamoyl)phenoxy)chroman-4-carboxylic acid]", "values": [{"measurement": "EC50", "setting": "[1]", "result": 178, "unit": "nM"}]}, {"smiles": "O=C(Nc1ccc2cc(F)ccc2n1)c1ccc(Oc2cc3c(cc2Cl)C(C(=O)O)CCO3)cc1", "note": "(stereo not shown) [Example 18, 6-Chloro-7-(4-(6-fluoroquinolin-2-ylcarbamoyl)phenoxy)chroman-4-carboxylic acid]", "values": [{"measurement": "EC50", "setting": "[1]", "result": 185, "unit": "nM"}]}]}
